Data reported in patent US8748428B2, “Use of a PKC inhibitor” (Novartis AG, priority 2010, dated 2014).

Experiments:
DB cells = assay: Growth inhibition, CellTiter-Glo, 5 days; type: cell-based; details: Homo sapiens, 120 h, GC DLBCL, no NFkB mutation, 5 days treatment, read-out: growth inhibitory IC50, DB
Source text: (§1) Two pharmacological PKC inhibitors: (i) the pan-PKC inhibitor, Sotrastaurin, also known as AEB071, and (ii) the PKCa/b-selective compound, 3-[2-chloro-7-[(dimethylamino)methyl]-1-naphthalenyl]-4-[7-[2-(2-methoxyethoxy)ethoxy]-1H-indol-3-yl]-1H-pyrrole-2,5-dione (referred to herein as “Compound B”), were used to evaluate the proliferation of several diffuse large B cell lymphoma (DLBCL) lines. The IKKb-selective inhibitors N-(6-chloro-7-methoxy-9H-β-carbolin-8-yl)-2-methylnicotinamide (referred to herein as “MLN120B”) and N-[(2R,6R)-2,6-dimethyl-4-piperidinyl]-4-(7-fluoro-1H-indol-3-yl)-2-pyrimidinamine (referred to herein as “Compound A”) were used as control compounds. ABC DLBCL cell lines (OCI-LY3, OCI-LY10, HBL1, U2932, TMD8, Su-DHL2) and GC DLBCL cell lines (Su-DHL4, DB, K-422) were treated for 5 days with PKC inhibitors (A) Sotrastaurin (AEB071) or (B) Compound B; IKKb inhibitors (C) MLN120B or (D) Compound A. Cells were plated in 96-well plates (Corning, #3358) at 5000 cells/well in 100 μL and treated with DMSO or inhibitors at concentrations ranging from 160 nM to 20 μM (2-fold dilutions). Following 5 days of treatment, cells were lysed with CellTiter-Glo® Luminescent Cell Viability Assay reagent (Promega, G7573), lysates were transferred to opaque 96-well plates (Corning, #3971), and luminescence signal was read using the Envision. Percent growth was calculated relative to median DMSO signal.
(§2) While all ABC DLBCL cell lines were sensitive to IKK inhibitors, their response to PKC inhibitors varied strongly (Table 1A below). The cell lines that are insensitive to PKC inhibitors, OCI-Ly3 and Su-DHL2, have reported mutations in CARD11 and A20, respectively. […] The fact that these oncogenic lesions are thought to function downstream of PKCβ in CBM-NFkB signaling provides a molecular rationale for their insensitivity. […] See, Compagno, M., et al, “Mutations of multiple genes cause deregulation of NF-κB in diffuse large B-cell lymphoma” Nature, 459 (7247), 717-722 (2009)). […] Tables 1A and 1B below show the growth inhibitory IC50 values, which were determined by measuring ATP concentration (Cell Titer Glo), for the indicated compounds in the indicated cell lines. IC50 values were determined as the concentration of compound that leads to 50% reduction of cell growth.

HBL1 cells = assay: Growth inhibition, CellTiter-Glo, 5 days; type: cell-based; details: HBL1, 120 h; ABC DLBCL, CD79B mutation; 5 days treatment; read-out: growth inhibitory IC50, HBL1
Source text: as §1, §2

K422 cells = assay: Growth inhibition, CellTiter-Glo, 5 days; type: cell-based; details: 120 h; GC DLBCL, no NFkB mutation; 5 days treatment; read-out: growth inhibitory IC50, K422
Source text: as §1, §2

OCI-Ly10 cells = assay: Growth inhibition, CellTiter-Glo, 5 days; type: cell-based; details: Homo sapiens, OCI-Ly10, 120 h; ABC DLBCL, CD79A mutation; 5 days treatment; read-out: growth inhibitory IC50, OCI-Ly10
Source text: as §1, §2

OCI-Ly3 cells = assay: Growth inhibition, CellTiter-Glo, 5 days; type: cell-based; details: Homo sapiens, OCI-Ly3, 120 h; ABC DLBCL, CARD11 mutation; 5 days treatment; read-out: growth inhibitory IC50, OCI-Ly3
Source text: as §1, §2

Su-DHL2 cells = assay: Growth inhibition, CellTiter-Glo, 5 days; type: cell-based; details: Homo sapiens, SU-DHL-2, 120 h; ABC DLBCL, A20 mutation; 5 days treatment; read-out: growth inhibitory IC50, Su-DHL2
Source text: as §1, §2

Su-DHL4 cells = assay: Growth inhibition, CellTiter-Glo, 5 days; type: cell-based; details: Homo sapiens, SU-DHL-4, 120 h; GC DLBCL, no NFkB mutation; 5 days treatment; read-out: growth inhibitory IC50, Su-DHL4
Source text: as §1, §2

TMD8 cells = assay: Growth inhibition, CellTiter-Glo, 5 days; type: cell-based; details: Homo sapiens, TMD8, 120 h; ABC DLBCL, CD79B mutation; 5 days treatment; read-out: growth inhibitory IC50, TMD8
Source text: as §1, §2

U2392 cells = assay: Growth inhibition, CellTiter-Glo, 5 days; type: cell-based; details: 120 h; ABC DLBCL, TAK1 mutation; 5 days treatment; read-out: growth inhibitory IC50, U2392
Source text: as §1, §2

TMD8 xenograft = assay: Subcutaneous TMD8 xenograft model, tumor growth; type: in vivo, SCID-beige mice; details: 80 mg/kg, tid, daily oral dosing; p<0.05 vs vehicle
Protocol: CD79 mutant ABC DLBCL were also shown to be sensitive to PKC inhibition in an in vivo setting by using a subcutaneous TMD8 xenograft model. Female SCID-beige mice were purchased from Charles River Labs (Wilmington Mass.) and housed in temperature and a humidity-controlled vivarium with a 12 hours light cycle and provided food and water ad libitum. Mice were implanted subcutaneously with 10×10^6 TMD8 cells in 50% matrigel (BD Biosciences, #354234) in the right dorsal axillary region, and animals were randomized into treatment groups when tumor sizes average ˜160 mm^3 (21 days post-implantation). AEB071 was formulated in 20% PEG400 and 4.5% 0.1 M HCl in D5W. Tumor volume was measured by callipering in 2 dimensions and calculated as (Length×Width^2)/2. Animals were callipered twice weekly during treatment to monitor effects on tumor growth. […] T/C percentage was calculated as the mean change in tumor volumes of treated animals divided by the mean change in tumor volumes of vehicle animals and multiplied by 100. Data are expressed as mean±SEM, and differences are considered statistically significant at p<0.05 by Student t-test.

Compound: CN1CCN(c2nc(C3=C(c4c[nH]c5ccccc45)C(=O)NC3=O)c3ccccc3n2)CC1 [AEB071, 3-(1H-Indol-3-yl)-4-[2-(4-methylpiperazin-1-yl)quinazolin-4-yl]-1H-pyrrole-2,5-dione]
- IC50 (DB cells): > 20 µM
- IC50 (HBL1 cells): 0.5 µM
- IC50 (K422 cells): > 20 µM
- IC50 (OCI-Ly10 cells): 1.3 µM
- IC50 (OCI-Ly3 cells): > 20 µM
- IC50 (Su-DHL2 cells): > 20 µM
- IC50 (Su-DHL4 cells): > 20 µM
- IC50 (TMD8 cells): 0.2 µM
- IC50 (U2392 cells): 5 µM
- T/C (tumor growth) (TMD8 xenograft): 17%
